Test results from patent US20240116985A1, “STAPLED PEPTIDES AND METHODS THEREOF” (priority 2020, published 2024).

Target: T1, full-length beta-Catenin (Uniprot ID P35222) (Homo sapiens, UniProt P35222)
T1 construct: 10 nM full-length beta-Catenin (Uniprot ID P35222)
T1 sequence (P35222 1-781): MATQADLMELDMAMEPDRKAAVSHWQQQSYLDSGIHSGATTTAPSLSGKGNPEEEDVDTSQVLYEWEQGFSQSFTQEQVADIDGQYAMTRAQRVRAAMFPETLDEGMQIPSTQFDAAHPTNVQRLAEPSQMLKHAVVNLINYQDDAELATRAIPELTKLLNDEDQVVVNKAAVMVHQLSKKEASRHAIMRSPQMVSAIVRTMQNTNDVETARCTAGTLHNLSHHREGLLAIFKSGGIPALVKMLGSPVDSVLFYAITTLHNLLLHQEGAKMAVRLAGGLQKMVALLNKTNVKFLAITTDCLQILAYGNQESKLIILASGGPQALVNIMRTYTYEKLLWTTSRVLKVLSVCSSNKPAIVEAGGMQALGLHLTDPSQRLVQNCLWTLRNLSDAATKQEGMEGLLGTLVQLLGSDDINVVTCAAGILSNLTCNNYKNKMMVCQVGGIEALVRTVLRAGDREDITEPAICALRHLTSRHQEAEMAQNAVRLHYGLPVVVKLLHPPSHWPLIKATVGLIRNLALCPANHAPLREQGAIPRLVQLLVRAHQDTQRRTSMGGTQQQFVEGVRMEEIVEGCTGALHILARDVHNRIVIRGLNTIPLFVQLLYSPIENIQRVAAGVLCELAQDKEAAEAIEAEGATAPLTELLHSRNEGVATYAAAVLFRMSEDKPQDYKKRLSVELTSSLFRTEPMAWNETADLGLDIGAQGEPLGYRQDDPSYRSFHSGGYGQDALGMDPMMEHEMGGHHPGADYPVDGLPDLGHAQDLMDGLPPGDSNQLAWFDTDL
Assay: Fluorescence polarization IC50 (beta-catenin / 5FAM-TCF4 10-53 competition)
Assay type: binding
Conditions: fluorescence polarization; read-out: beta-Catenin FP IC50

Row | Compound | IC50
1 | CC(=O)N1CCC[C@]12CC=CCCC1(CCC=CCCOC(=O)N3CC[C@@](C(=O)N[C@@H](Cc4ccsc4)C(=O)N[C@@H](Cc4csc5ccccc45)C(=O)N[C@@H](CCC(N)=O)C(N)=O)(C3)NC(=O)[C@H](CC(C)C)NC(=O)[C@H](Cc3ccccc3)NC(=O)[C@H](C)NC(=O)[C@H](C)NC(=O)[C@H](CC(=O)O)NC(=O)[C@H](CC(=O)O)NC1=O)NC(=O)[C@H](CC(C)(C)C)NC(=O)[C@H](CC(=O)O)NC2=O (stereo partly drawn) [I-1970, Ac-PL3-Asp-Npg-B4-Asp-Asp-Ala-Ala-Phe-Leu-PyrS1-3Thi-BztA-Gln-NH2] | 441 nM
2 | CC(=O)N1CCC[C@]12CC=CCCC1(CCC=CCCCOC(=O)N3CC[C@@](C(=O)N[C@@H](Cc4ccsc4)C(=O)N[C@@H](Cc4csc5ccccc45)C(=O)N[C@@H](CCC(N)=O)C(N)=O)(C3)NC(=O)[C@H](CC(C)C)NC(=O)[C@H](Cc3ccccc3)NC(=O)[C@H](C)NC(=O)[C@H](C)NC(=O)[C@H](CC(=O)O)NC(=O)[C@H](CC(=O)O)NC1=O)NC(=O)[C@H](CC(C)(C)C)NC(=O)[C@H](CC(=O)O)NC2=O (stereo partly drawn) [I-1971, Ac-PL3-Asp-Npg-B4-Asp-Asp-Ala-Ala-Phe-Leu-PyrS2-3Thi-BztA-Gln-NH2] | 475 nM
3 | CC(=O)N1CCC[C@]12CC=CCCC1(CCC=CCCCOC(=O)N3CC[C@@](C(=O)N[C@@H](Cc4ccsc4)C(=O)N[C@@H](Cc4csc5ccccc45)C(=O)N[C@@H](CCC(N)=O)C(N)=O)(C3)NC(=O)[C@H](CC(C)C)NC(=O)[C@H](Cc3ccccc3)NC(=O)[C@H](C)NC(=O)[C@H](C)NC(=O)[C@H](CC(=O)O)NC(=O)[C@H](CC(=O)O)NC1=O)NC(=O)[C@H](CC(C)(C)C)NC(=O)[C@H](CC(=O)O)NC2=O (stereo partly drawn) [I-1972, Ac-PL3-Asp-Npg-B4-Asp-Asp-Ala-Ala-Phe-Leu-PyrS2-3Thi-BztA-Gln-NH2] | 689 nM
4 | CC(=O)N1CCC[C@]12CC=CCCC1(CCC=CCCCCOC(=O)N3CC[C@@](C(=O)N[C@@H](Cc4ccsc4)C(=O)N[C@@H](Cc4csc5ccccc45)C(=O)N[C@@H](CCC(N)=O)C(N)=O)(C3)NC(=O)[C@H](CC(C)C)NC(=O)[C@H](Cc3ccccc3)NC(=O)[C@H](C)NC(=O)[C@H](C)NC(=O)[C@H](CC(=O)O)NC(=O)[C@H](CC(=O)O)NC1=O)NC(=O)[C@H](CC(C)(C)C)NC(=O)[C@H](CC(=O)O)NC2=O (stereo partly drawn) [I-1973, Ac-PL3-Asp-Npg-B4-Asp-Asp-Ala-Ala-Phe-Leu-PyrS3-3Thi-BztA-Gln-NH2] | 797 nM
5 | CC(=O)N1CCC[C@]12CCCCCC1(CCCCCCCCOC(=O)N3CC[C@@](C(=O)N[C@@H](Cc4ccsc4)C(=O)N[C@@H](Cc4csc5ccccc45)C(=O)N[C@@H](CCC(N)=O)C(N)=O)(C3)NC(=O)[C@H](CC(C)C)NC(=O)[C@H](Cc3ccccc3)NC(=O)[C@H](C)NC(=O)[C@H](C)NC(=O)[C@H](CC(=O)O)NC(=O)[C@H](CC(=O)O)NC1=O)NC(=O)[C@H](CC(C)(C)C)NC(=O)[C@H](CC(=O)O)NC2=O (stereo partly drawn) [I-1976, Ac-PL3-Asp-Npg-B4-Asp-Asp-Ala-Ala-Phe-Leu-PyrS3-3Thi-BztA-Gln-NH2] | 150 nM
6 | CC(C)C[C@@H]1NC(=O)[C@H](Cc2ccccc2)NC(=O)[C@H](C)NC(=O)[C@H](C)NC(=O)[C@H](Cc2cccc(C(=O)O)c2)NC(=O)[C@H](CC(=O)O)NC(=O)C2(CCCC=CCCCOC(=O)N3CC[C@@](C(=O)N[C@@H](Cc4ccccc4Cl)C(=O)N[C@@H](Cc4csc5ccccc45)C(=O)N[C@@H](CCC(N)=O)C(N)=O)(C3)NC1=O)CCCC=CCCC(=O)N1CCCC1C(=O)N[C@@H](CC(=O)O)C(=O)N[C@@H](CC(C)(C)C)C(=O)N2 (stereo partly drawn) [I-1984, ProAm5-Asp-Npg-B5-Asp-3COOHF-Ala-Ala-Phe-Leu-PyrS2-2C1F-BztA-Gln-NH2] | 320 nM
7 | CC(C)C[C@@H]1NC(=O)[C@H](Cc2ccccc2)NC(=O)[C@H](C)NC(=O)[C@H](C)NC(=O)[C@H](Cc2cccc(C(=O)O)c2)NC(=O)[C@H](CC(=O)O)NC(=O)C2(CCCC=CCCCOC(=O)N3CC[C@@](C(=O)N[C@@H](Cc4ccccc4Cl)C(=O)N[C@@H](Cc4csc5ccccc45)C(=O)N[C@@H](CCC(N)=O)C(N)=O)(C3)NC1=O)CCCC=CCCCC(=O)N1CCC[C@@H]1C(=O)N[C@@H](CC(=O)O)C(=O)N[C@@H](CC(C)(C)C)C(=O)N2 (stereo partly drawn) [I-1985, ProAm6-Asp-Npg-B5-Asp-3COOHF-Ala-Ala-Phe-Leu-PyrS2-2C1F-BztA-Gln-NH2] | 325 nM

More lines, now with the values ahead:

Row | IC50 | Compound
8 | 324 nM | CC(=O)N1CCC[C@]12CCCCCC1(CCCCCCOC(=O)N3CC[C@@](C(=O)N[C@@H](Cc4ccsc4)C(=O)N[C@@H](Cc4csc5ccccc45)C(=O)N[C@@H](CCC(N)=O)C(N)=O)(C3)NC(=O)[C@H](CC(C)C)NC(=O)[C@H](Cc3ccccc3)NC(=O)[C@H](C)NC(=O)[C@H](C)NC(=O)[C@H](CC(=O)O)NC(=O)[C@H](CC(=O)O)NC1=O)NC(=O)[C@H](CC(C)(C)C)NC(=O)[C@H](CC(=O)O)NC2=O (stereo partly drawn) [I-1974, Ac-PL3-Asp-Npg-B4-Asp-Asp-Ala-Ala-Phe-Leu-PyrS1-3Thi-BztA-Gln-NH2]
9 | 745 nM | CC(=O)N1CCC[C@]12CCCCCC1(CCCCCCCOC(=O)N3CC[C@@](C(=O)N[C@@H](Cc4ccsc4)C(=O)N[C@@H](Cc4csc5ccccc45)C(=O)N[C@@H](CCC(N)=O)C(N)=O)(C3)NC(=O)[C@H](CC(C)C)NC(=O)[C@H](Cc3ccccc3)NC(=O)[C@H](C)NC(=O)[C@H](C)NC(=O)[C@H](CC(=O)O)NC(=O)[C@H](CC(=O)O)NC1=O)NC(=O)[C@H](CC(C)(C)C)NC(=O)[C@H](CC(=O)O)NC2=O (stereo partly drawn) [I-1975, Ac-PL3-Asp-Npg-B4-Asp-Asp-Ala-Ala-Phe-Leu-PyrS2-3Thi-BztA-Gln-NH2]
10 | 4280 nM | CC(=O)N1CCC[C@]12CC=CCCCC[C@@](C)(C(=O)N[C@@H](CC(=O)O)C(=O)N[C@@H](CC(=O)O)C(=O)N[C@@H](C)C(=O)N[C@@H](C)C(=O)N[C@@H](Cc1ccccc1)C(=O)N[C@@H](CC(C)C)C(=O)NC(C)(C)C(=O)N[C@@H](Cc1ccsc1)C(=O)N[C@@H](Cc1csc3ccccc13)C(=O)N[C@@H](CCC(N)=O)C(N)=O)NC(=O)[C@H](CC(C)(C)C)NC(=O)[C@H](CC(=O)O)NC2=O [I-1977, Ac-PL3-Asp-Npg-S6-Asp-Asp-Ala-Ala-Phe-Leu-Aib-3Thi-BztA-Gln-NH2]
11 | 567 nM | CC(=O)N1CCC[C@]12CCCCCCC[C@@](C)(C(=O)N[C@@H](CC(=O)O)C(=O)N[C@@H](CC(=O)O)C(=O)N[C@@H](C)C(=O)N[C@@H](C)C(=O)N[C@@H](Cc1ccccc1)C(=O)N[C@@H](CC(C)C)C(=O)NC(C)(C)C(=O)N[C@@H](Cc1ccsc1)C(=O)N[C@@H](Cc1csc3ccccc13)C(=O)N[C@@H](CCC(N)=O)C(N)=O)NC(=O)[C@H](CC(C)(C)C)NC(=O)[C@H](CC(=O)O)NC2=O [I-1981, Ac-PL3-Asp-Npg-S6-Asp-Asp-Ala-Ala-Phe-Leu-Aib-3Thi-BztA-Gln-NH2]
12 | 9660 nM | CC(=O)N1CCC[C@]12CCCCC[C@@](C)(C(=O)N[C@@H](CC(=O)O)C(=O)N[C@@H](CC(=O)O)C(=O)N[C@@H](C)C(=O)N[C@@H](C)C(=O)N[C@@H](Cc1ccccc1)C(=O)N[C@@H](CC(C)C)C(=O)NC(C)(C)C(=O)N[C@@H](Cc1ccsc1)C(=O)N[C@@H](Cc1csc3ccccc13)C(=O)N[C@@H](CCC(N)=O)C(N)=O)NC(=O)[C@H](CC(C)(C)C)NC(=O)[C@H](CC(=O)O)NC2=O [I-1982, Ac-PL3-Asp-Npg-S4-Asp-Asp-Ala-Ala-Phe-Leu-Aib-3Thi-BztA-Gln-NH2]
